Measured values from ChEMBL document CHEMBL1641501, “Discovery of selective irreversible inhibitors for EGFR-T790M” (Bioorg Med Chem Lett, 2011).
Calls of active or inactive are those of the source. No cut-off for these calls is given here.

Tests used:
PC-9 [1] = assay: Antiproliferative activity against growth-resistant human PC9 cells expressing EGFR E746_A750/T790M mutant; format: functional, cell-based
PC-9 [2] = assay: Antiproliferative activity against EGFR-deficient human PC9 cells; format: functional, cell-based
[3] = target: T1, Cytoplasmic tyrosine-protein kinase BMX (Homo sapiens) (UniProt P51813); assay: Inhibition of Bmx transfected with TEL fusion in mouse BA/F3 cells; format: cell-based; settings: BaF3
T1 sequence (whole entry): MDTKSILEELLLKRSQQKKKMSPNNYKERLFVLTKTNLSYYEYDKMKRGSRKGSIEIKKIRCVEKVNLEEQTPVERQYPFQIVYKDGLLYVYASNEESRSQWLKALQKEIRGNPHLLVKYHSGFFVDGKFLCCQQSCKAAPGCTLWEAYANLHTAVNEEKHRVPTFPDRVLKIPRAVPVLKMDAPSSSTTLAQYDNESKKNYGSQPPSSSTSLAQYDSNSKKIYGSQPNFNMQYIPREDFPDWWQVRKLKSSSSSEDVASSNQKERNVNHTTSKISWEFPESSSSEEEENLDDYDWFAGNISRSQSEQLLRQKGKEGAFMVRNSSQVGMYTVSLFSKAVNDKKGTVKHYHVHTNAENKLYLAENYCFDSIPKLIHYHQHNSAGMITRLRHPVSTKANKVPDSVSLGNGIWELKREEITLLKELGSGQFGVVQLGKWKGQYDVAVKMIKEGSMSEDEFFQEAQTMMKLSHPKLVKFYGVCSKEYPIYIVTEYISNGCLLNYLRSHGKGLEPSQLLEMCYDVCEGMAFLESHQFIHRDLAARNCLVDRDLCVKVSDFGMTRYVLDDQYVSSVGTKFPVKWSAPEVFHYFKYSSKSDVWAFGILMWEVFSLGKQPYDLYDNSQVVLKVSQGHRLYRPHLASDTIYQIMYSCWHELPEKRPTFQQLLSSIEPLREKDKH

[4] = Antiproliferative activity against mouse BA/F3 cells transfected with EGFR E746_A750_del/T790M mutant; format: functional, cell-based; settings: BaF3
[5] = Antiproliferative activity against mouse BA/F3 cells transfected with EGFR E746_A750_del/T790M/C797S mutant; format: functional, cell-based; settings: BaF3
[6] = Antiproliferative activity against mouse BA/F3 cells transfected with EGFR L858R/T790M/C797S mutant; format: functional, cell-based; settings: BaF3
[7] = Antiproliferative activity against mouse BA/F3 cells transfected with EGFR E746_A750/T790M mutant; format: functional, cell-based; settings: BaF3
[8] = target: Tyrosine-protein kinase Blk (Homo sapiens) (UniProt P51451); assay: Inhibition of Blk transfected with TEL fusion in mouse BA/F3 cells; format: cell-based; settings: BaF3
[9] = Antiproliferative activity against mouse BA/F3 cells transfected with EGFR L858R/T790M mutant; format: functional, cell-based; settings: BaF3
[10] = target: T2, Tyrosine-protein kinase JAK3 (Homo sapiens) (UniProt P52333); assay: Inhibition of Jak3 transfected with TEL fusion in mouse BA/F3 cells; format: cell-based; settings: BaF3
T2 sequence (whole entry): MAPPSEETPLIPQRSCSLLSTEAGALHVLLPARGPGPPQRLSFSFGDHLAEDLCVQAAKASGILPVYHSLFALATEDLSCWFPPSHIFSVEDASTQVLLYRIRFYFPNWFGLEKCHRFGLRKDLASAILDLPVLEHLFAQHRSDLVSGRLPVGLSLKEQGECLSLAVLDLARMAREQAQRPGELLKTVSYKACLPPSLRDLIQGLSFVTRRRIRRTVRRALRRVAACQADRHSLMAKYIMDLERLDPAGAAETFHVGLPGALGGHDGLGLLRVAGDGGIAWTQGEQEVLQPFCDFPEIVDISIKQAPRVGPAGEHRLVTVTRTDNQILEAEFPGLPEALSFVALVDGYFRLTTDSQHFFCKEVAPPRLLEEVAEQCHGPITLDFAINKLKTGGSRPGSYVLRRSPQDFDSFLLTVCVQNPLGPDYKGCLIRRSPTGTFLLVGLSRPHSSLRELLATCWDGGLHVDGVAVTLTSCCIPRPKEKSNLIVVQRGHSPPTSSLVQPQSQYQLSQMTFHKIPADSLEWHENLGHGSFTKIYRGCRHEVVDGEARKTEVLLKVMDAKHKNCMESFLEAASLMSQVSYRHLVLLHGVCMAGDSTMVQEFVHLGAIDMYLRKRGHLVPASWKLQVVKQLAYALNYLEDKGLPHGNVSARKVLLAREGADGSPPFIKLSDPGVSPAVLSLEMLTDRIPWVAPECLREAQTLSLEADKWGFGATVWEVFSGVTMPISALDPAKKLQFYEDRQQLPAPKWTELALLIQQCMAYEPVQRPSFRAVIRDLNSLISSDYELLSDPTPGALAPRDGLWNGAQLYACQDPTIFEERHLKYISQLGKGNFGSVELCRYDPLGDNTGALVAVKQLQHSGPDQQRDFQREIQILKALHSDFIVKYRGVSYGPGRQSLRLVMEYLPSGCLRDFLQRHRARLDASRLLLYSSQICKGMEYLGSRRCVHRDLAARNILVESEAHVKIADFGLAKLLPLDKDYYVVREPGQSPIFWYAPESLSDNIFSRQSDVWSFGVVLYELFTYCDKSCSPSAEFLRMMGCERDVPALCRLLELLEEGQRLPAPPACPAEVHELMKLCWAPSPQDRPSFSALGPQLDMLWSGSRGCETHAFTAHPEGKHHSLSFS

Chain of Tyrosine-protein kinase Blk (Homo sapiens) (P51451 2-505 limits assumed): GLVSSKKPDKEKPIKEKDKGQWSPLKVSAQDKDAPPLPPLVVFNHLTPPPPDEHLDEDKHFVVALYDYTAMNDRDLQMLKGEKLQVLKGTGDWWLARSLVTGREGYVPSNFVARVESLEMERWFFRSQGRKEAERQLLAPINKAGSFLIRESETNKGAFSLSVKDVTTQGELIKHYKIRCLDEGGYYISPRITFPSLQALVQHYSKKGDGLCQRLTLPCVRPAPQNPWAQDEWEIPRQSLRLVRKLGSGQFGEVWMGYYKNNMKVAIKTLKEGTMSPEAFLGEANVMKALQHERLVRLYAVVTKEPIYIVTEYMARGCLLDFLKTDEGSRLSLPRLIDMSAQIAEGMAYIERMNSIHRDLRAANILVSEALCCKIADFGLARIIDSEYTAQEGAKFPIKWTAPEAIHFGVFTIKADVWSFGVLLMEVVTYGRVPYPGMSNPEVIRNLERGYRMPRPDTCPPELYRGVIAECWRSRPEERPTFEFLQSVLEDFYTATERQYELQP

| SMILES | EC50 (PC-9 [1]) [nM] | EC50 (PC-9 [2]) [nM] | also measured |
| --- | --- | --- | --- |
| C=CC(=O)N1CCCC(N(C)c2nc(Nc3ccc(N(C)C(=O)CC)cc3)nc3[nH]cnc23)C1 (centres undefined) | 6000 | 900 | – |
| C=CC(=O)Nc1ccc(Oc2ncnc3[nH]cc(-c4cccnc4)c23)cc1 | 6000 | 6000 | – |
| C=CC(=O)Nc1cccc(Oc2[nH]cnc3ncc(-c4cnc5ccccc5c4)c2-3)c1 | 8000 | 6000 | – |
| C=CC(=O)Nc1cccc(Oc2nc(Nc3ccc(C(=O)N4CCN(C)CC4)cc3OC)ncc2Cl)c1 | > 1000 | > 1000 | – |
| C=CC(=O)Nc1cccc(Oc2nc(Nc3ccc(-c4ccncc4)cc3OC)ncc2Cl)c1 | 900 | – | – |
| C=CC(=O)Nc1cccc(Oc2nc(Nc3ccc(C(=O)NC4CCN(C)CC4)cc3OC)ncc2Cl)c1 | 800 | 500 | – |
| C=CC(=O)Nc1cccc(Oc2ccnc(Nc3ccc(N4CCN(C)CC4)cc3)n2)c1 | > 1000 | 80 | – |
| C=CC(=O)N1CCCC(Nc2nc(Nc3ccc(N4CCN(C)CC4)cc3)nc3[nH]cnc23)C1 (centres undefined) | 5000 | 1000 | – |
| C=CC(=O)N1CCCC(Nc2nc(Nc3ccc(N(C)C(=O)CC)cc3)nc3[nH]cnc23)C1 (centres undefined) | 10000 | 7000 | – |
| C=CC(=O)Nc1ccc(Oc2ncnc3[nH]cc(-c4cnc5ccccc5c4)c23)cc1 | 10000 | 10000 | – |
| C=CC(=O)Nc1cccc(Oc2nc(Nc3ccc(N4CCN(C)CC4)cc3)ncc2C(F)(F)F)c1 | 800 | 700 | – |
| C=CC(=O)Nc1cccc(Oc2ncnc3[nH]cc(-c4ccc(OC)cc4)c23)c1 | 6000 | 6000 | – |
| C=CC(=O)Nc1cccc(Oc2nc(Nc3ccc(N4CCN(C)CC4)cc3OC)ncc2Cl)c1Cl | > 1000 | > 1000 | – |
| C=CC(=O)Nc1cccc(Oc2nc(Nc3ccc(CC(=O)N4CCN(C)CC4)cc3)ncc2Cl)c1 | 50 | – | – |
| C=CC(=O)Nc1cccc(Oc2nc(Nc3ccc(C(=O)NC4CCN(C)CC4)cc3)ncc2Cl)c1 | 1000 | 800 | – |
| C=CC(=O)N1CCCC(Nc2nc(Nc3ccc(C(=O)N4CCN(C)CC4)cc3)nc3[nH]cnc23)C1 (centres undefined) | 10000 | 10000 | – |
| C=CC(=O)Nc1cccc(Oc2nc(Nc3ccc(N4CCN(C)CC4)cc3)ncc2Br)c1 | 900 | 800 | – |

The remaining compounds from weak to strong by EC50 (PC-9 [1]), led by results:

| EC50 (PC-9 [1]) [nM] | EC50 (PC-9 [2]) [nM] | SMILES | also measured |
| --- | --- | --- | --- |
| 800 | 200 | C=CC(=O)Nc1cccc(Oc2nc(Nc3ccc(N4CCC(O)CC4)cc3OC)ncc2Cl)c1 | – |
| 800 | 800 | C=CC(=O)Nc1cccc(Oc2nc(Nc3ccc(C(=O)N4CCN(C)CC4)cc3)ncc2Cl)c1 | – |
| 800 | – | C=CC(=O)Nc1cccc(Oc2nc(Nc3ccc(F)cc3OC)ncc2Cl)c1 | – |
| 600 | 300 | C=CC(=O)Nc1cccc(Oc2nc(Nc3ccc(N4CCN(C)CC4)cc3)nc3[nH]cnc23)c1 | – |
| 500 | – | C=CC(=O)Nc1cccc(Oc2nc(Nc3ccc(C(=O)NCCN4CCOCC4)cc3OC)ncc2Cl)c1 | – |
| 500 | 500 | C=CC(=O)Nc1cccc(Oc2ncnc3[nH]cc(-c4cccnc4)c23)c1 | – |
| 420 | – | C=CC(=O)Nc1cccc(Oc2nc(Nc3ccc(CN4CCN(C)CC4)cc3C(F)(F)F)ncc2Cl)c1 | – |
| 200 | – | C=CC(=O)Nc1cccc(Oc2nc(Nc3ccc(C4=CCN(C)CC4)cc3OC)ncc2Cl)c1 | – |
| 200 | 100 | C=CC(=O)Nc1cccc(Oc2nc(Nc3ccc(C4CCCN(C)C4)cc3OC)ncc2Cl)c1 (centres undefined) | – |
| 150 | – | C=CC(=O)Nc1cccc(Oc2nc(Nc3ccc(N4CCOCC4)cc3OC)ncc2Cl)c1 | – |
| 100 | 80 | C=CC(=O)Nc1cccc(Oc2nc(Nc3ccc(N4CCC(N5CCN(C)CC5)CC4)cc3OC)ncc2Cl)c1 | – |
| 90 | – | C=CC(=O)Nc1cccc(Oc2nc(Nc3ccc(N4CCN(C)CC4)cc3C(F)(F)F)ncc2Cl)c1 | – |
| 40 | 100 | C=CC(=O)Nc1cccc(Oc2nc(Nc3ccc(C4CCN(C)CC4)cc3OC)ncc2Cl)c1 | – |
| 31 | – | C=CC(=O)Nc1cccc(Oc2nc(Nc3ccc(N4CCN(C)CC4)cc3OC)ncc2Cl)c1F | – |
| 30 | – | C=CC(=O)Nc1cccc(Oc2nc(Nc3ccc(CN4CCN(C)CC4)cc3)ncc2Cl)c1 | – |
| 20 | 20 | C=CC(=O)Nc1cccc(Sc2nc(Nc3ccc(N4CCN(C)CC4)cc3OC)ncc2Cl)c1 | – |
| 20 | – | C=CC(=O)Nc1cc(F)cc(Oc2nc(Nc3ccc(N4CCN(C)CC4)cc3OC)ncc2Cl)c1 | – |
| 20 | 40 | C=CC(=O)Nc1cccc(Nc2nc(Nc3ccc(N4CCN(C)CC4)cc3OC)ncc2Cl)c1 | – |
| 14 | 36 | C=CC(=O)Nc1cccc(Oc2nc(Nc3ccc(N4CCN(C)CC4)cc3OC)ncc2Cl)c1 | inhibition [3]: Active; EC50 [4]: 2 nM; EC50 [5]: > 3300 nM; EC50 [6]: > 3300 nM; EC50 [7]: 1290 nM; inhibition [8]: Active; EC50 [9]: 8 nM; inhibition [10]: Active |
| 8 | – | C=CC(=O)Nc1cccc(Oc2nc(Nc3ccc(CCN4CCN(C)CC4)cc3)ncc2Cl)c1 | – |
| 8 | 6 | C=CC(=O)Nc1cccc(Sc2nc(Nc3ccc(N4CCN(C)CC4)cc3)ncc2Cl)c1 | – |
| 3 | 15 | C=CC(=O)Nc1cccc(Oc2nc(Nc3ccc(N4CCN(C)CC4)cc3)ncc2Cl)c1 | – |
